Data set [1] concerns bovine heart mitochondria deactivated by treatment with acetone (succinate oxidase activity). In words: Mitochondrial respiration activating effect (succinate oxidase oxygen consumption). Conditions: 5 n mole added; 23° C.; succinate substrate; acetone-treated mitochondria. It is filed as biochemical. The procedure:
The effect of activating the respiration of bovine heart mitochondria deactivated by treatment with acetone was evaluated by the method of Lester and Fleischer (Biochim. Biophys. Acta, vol. 113, p. 519, 1966). The respiration activating effect was expressed in terms of oxygen consumption due to succinate oxidase activity, succinic acid being the substrate.
*The rate was measured at 23° C. using an oxygen electrode
apparatus (Gilson's model KIC). Composition of the reaction medium (2 ml)
0.2 M sucrose, 10 mM Trishydrochloric acid (pH 7.4), 20 mM KCl, 3 mM
MgCl2, 50 μM EDTA.2Na, 1.99 mg (as protein) acetonetreated
mitochondria, 50 μM potassium succinate, 0.2 mg cytochrome C, and 5
μl 1% Nikkol OP10 ® (polyoxyethylene octylphenyl ether; Produced b
Nikko Chemicals) solution of the test sample (in the case of the test
sample) or 5 μl 1% Nikkol OP10 ® (Polyoxyethylene octylphenyl
ether; Produced by Nikko Chemicals) (in the case of the control).

The subject of data set [2] is Spontaneously hypertensive rats. In words: Protecting effect against heart failure (drug-induced cardiac insufficiency), spontaneously hypertensive rats. It is filed as in vivo, rat. Conditions: administration period 10 days.
Data set [3] concerns SHRSP. The data set is described as follows: Antihypertensive action. Conditions: 35 mg/kg daily oral. Format: in vivo, rat. The source says: | ^1 Each group consisted of 12 animals.
For data set [4], the system named is SHRSP. The data set is described as follows: Improving effect on symptoms of cerebral apoplexy. It is filed as in vivo, rat. Conditions: 100 mg/kg/day oral, 21 days after first symptom. An excerpt:
SHRSP's were fed under sodium chloride loading as in Example 3. Upon manifestation of the first symptom, the sodium chloride loading was discontinued and at the same time oral administration of the compound of the invention (I, n=10) was commenced. After administration for 3 weeks, the dosed group was compared with the control group in respect of the severity of the symptoms. The severity was scored (0 for no symptoms to 5 for the severest) for each individual and the results were expressed in terms of the total score for the respective group. As shown by the results set forth in Table 4, the administration of the compound of the present invention alleviated the clinical symptoms after manifestation of the apoplexy. The body weight loss after the apoplexy was also depressed.

A further data set concerns normal rat. The data set is described as follows: Preventing effect against development of malignant hypertension (unilateral kidney excision, desoxycorticosterone acetate, 1% sodium chloride). It is filed as in vivo. Particulars: 50 mg/kg oral twice a day. Here is the method:
The kidney of each normal rat was unilaterally excised, and desoxycorticosterone acetate (10 mg/kg) was administered subcutaneously once a week. The rats were given a 1% aqueous sodium chloride solution as drinking water. On the day of operation and thereafter, the compound of the invention (I, n=10) was orally administered at a dose of 50 mg/kg twice a day, and the above indexes of aggravation were determined.

For data set [5], the system named is SHRSP. The data set is described as follows: Cerebral ischemia-protecting effect, carotid artery ligated on both sides. It is filed as in vivo, rat. An excerpt: Spontaneously hypertensive rats showing a strong tendency to cerebral apoplexy (hereinafter abbreviated to SHRSP) (Okamoto et al., Circulation Res., vol. 34-35, pp. 1-143, 1974), were newly established in 1974. When the carotid artery is ligated on both sides, apoplectic symptoms such as convulsion fit, respiratory distress and coma, which lead to death (the incidence being 100%), are observed.
The time to the manifestation of the symptoms and the time to death were prolonged also by the administration of 100 mg/kg for 3 days or 35 mg/kg for 14 days.

Data set [6] can be described thus: 2-week oral repeated dose toxicity (Reference Example 8). It is filed as in vivo. Particulars: gum arabic suspension, 100 mg/kg or 500 mg/kg daily for 2 weeks. Here is the method:
The compound of the present invention (I, n=10) was suspended in a gum arabic solution and oraly administered consecutively for 2 weeks at a daily dose of 100 mg/kg or 500 mg/kg, and examination of general condition, urinalysis and blood examination were carried out during the course of administration. Histopathology was done at the termination of the administration.

For another data set, the system named is normal rats. In words: Protecting effect against heart failure (Adriamycin-induced), normal rats. Format: in vivo, rat. Particulars: Adriamycin 1 mg/kg/day i.p., compound 10 mg/kg/day oral, 10 days. Here is the method:
Adriamycin (1 mg/kg/day) was intraperitoneally administered to normal rats and, after 2 weeks, the compound of the invention (I, n=10) (10 mg/kg/day) was orally administered, and the cardiac functional state was examined electrocardiographically and biochemically. […] In addition, the tissue lactic acid level, an index of myocardinal energy state, was lowered.

Data set [7] deals with SHRSP. In words: Cerebral apoplexy preventing effect. Format: in vivo, rat. Here is the method: The SHRSP, fed with high sodium chloride level, are liable to develop cerebral apoplexy (cerebral hemorrhage or hemorrhagic infarction) with high incidence. The compound of the invention (I, n=10) was administered in admixture with the diet to a group of 12 male SHRSP.
^1 8week-old male SHRSP
^2 14week-old male SHRSP
^3 Number of apoplectic cases/number of animals used.

[8] abbreviates: Experiment 2, 100 mg/kg/day, 3 days.
The mark [9] stands for this setting: Experiment 3, 35 mg/kg/day, 14 days.

For `COC1=C(OC)C(=O)C(CCCCCCCCCCCCCCCCCCO)=C(C)C1=O` [I (n = 18), 6-(18-hydroxyoctadecyl)-2,3-dimethoxy-5-methyl-1,4-benzoquinone], in data set [1], the Oxygen consumption rate is listed as 44.5 ± 3.2 Oxygen (n atom)/minute/mg prot.

`COC1=C(OC)C(=O)C(CCCCCCCCCCO)=C(C)C1=O` [I (n = 10), 2,3-dimethoxy-5-methyl-6-(10-hydroxydecyl)-1,4-benzoquinone]: the “Heart lactic acid on wet weight basis” value in data set [2] was found to be 1.9 ± 0.12 µmol/g; in the data set on normal rats it was 1.65 ± 0.1 µmol/g. For the same molecule, the figures for the QRS width (in data set [2]; in the data set with normal rats) were 2.9 ± 0.2 ms and 4.6 ± 0.4 ms, respectively. The Oxygen consumption rate in data set [1] is listed as 45.0 ± 3.7 Oxygen (n atom)/minute/mg prot. The Blood pressure came out at 175 ± 3 mmHg in the data set on SHRSP [3] (day 0), 188 ± 4 mmHg with SHRSP [3] (day 7), 199 ± 3 mmHg in the data set on SHRSP [3] (day 14) and 208 ± 4 mmHg in the data set with SHRSP [3] (day 21). In the data set on SHRSP [4], this molecule came in with a Body weight loss of 8 ± 3%. In addition, the “Severity of symptoms (total score of group; 0 to 5 per individual)” value in the data set on SHRSP [4] came to 20 ± 3. Moreover, the values for the Body weight in the data set with normal rat (day 0), with normal rat (day 14) and with normal rat (day 21) were 224 ± 4 g, 269 ± 8 g and 274 ± 13 g, respectively. Moreover, the results for the Urine protein in the data set with normal rat (day 0), in the data set with normal rat (day 14) and in the data set with normal rat (day 21) were 47 ± 1 mg/day/250 g body weight, 225 ± 38 mg/day/250 g body weight and 367 ± 68 mg/day/250 g body weight, respectively. The “Time to convulsion fit” value in the data set with SHRSP [5] (Experiment 1, 15 mg/kg/day oral, 21 days) turned out to be 119 ± 13 min; in the data set on SHRSP [5] (setting [8]), 117 ± 15 min; in the data set with SHRSP [5] (setting [9]) it was 93 ± 14 min. The Time to death was 235 ± 27 min in the data set with SHRSP [5] (setting [8]) and 242 ± 29 min in the data set with SHRSP [5] (setting [9]). The “Abnormalities (general condition, urinalysis, blood examination, histopathology)” value in data set [6] is on record as “could not reveal any abnormalities ascribable to the administration”. Also, in the data set on SHRSP [7] (10 SHRSP fed without sodium chloride loading), the “Spontaneous manifestation of cerebral apoplexy (in words)” value is listed as “can prevent manifestation of cerebral apoplexy”. The “Incidence of cerebral apoplexy (number of apoplectic cases/number of animals used)” value in the data set on SHRSP [7] (Experiment 1, sodium chloride loading +, 35 mg/kg/day in diet, 40 days, 8-week-old male SHRSP) is listed as 7/12; in the data set on SHRSP [7] (Experiment 2, no sodium chloride loading, 35 mg/kg/day, 45 days, 14-week-old male SHRSP) it was 5/10. Also, in the data set on SHRSP [7] (SHRSP fed with high sodium chloride level, compound in admixture with the diet, 12 male SHRSP), the “Cerebral apoplexy compared with the control group (in words)” value is reported as “significantly (P<0.05 by Wilcoxon's two sample test) inhibited”.

For the origin of these results see patent US4436753A, “Method for therapy of ischemic disease” (Takeda Chemical Industries, Ltd., priority 1979, dated 1984).
